# Measurements published in patent US4740233A, “Substituted 1,2,4-triazolo[1,5-a]-pyrimidine-2-sulfonamides and compositions and methods of controlling undesired vegetation and suppressing the nitrification of ammonium nitrogen in soil” (The Dow Chemical Company, priority 1986, dated 1988).
# What was measured:
# cotton [1] = assay: Postemergent control of plant species; assay type: in vivo, Gossypium spp.; conditions: Gossypium hirsutum, post-emergence, 336 h, read-out: percent postemergent control
# Procedure, shortened: (§1)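 Compounds in acetone mixed 1:1 with water containing 0.1% surfactant, sprayed postemergence on greenhouse plants at the 2-4 leaf stage. Growth reduction versus untreated plants of the same species scored after about two weeks.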
# rape [2] = assay: Postemergent control of plant species; assay type: in vivo, Brassica napus; conditions: Brassica napus, post-emergence, 336 h, read-out: percent postemergent control
# Procedure, shortened: as §1
# soybean [3] = assay: Postemergent control of plant species; assay type: in vivo, Glycine max.; conditions: Glycine max, post-emergence, 336 h, read-out: percent postemergent control
# Procedure, shortened: as §1
# sugar beet [4] = assay: Postemergent control of plant species; assay type: in vivo, Beta saccharifera; conditions: Beta vulgaris, post-emergence, 336 h, read-out: percent postemergent control
# Procedure, shortened: as §1
# jimsonweed = assay: Postemergent control of plant species; assay type: in vivo, Datura stramonium; conditions: Datura stramonium, post-emergence, 336 h, read-out: percent postemergent control
# Procedure, shortened: as §1
# annual morning glory [5] = assay: Postemergent control of plant species; assay type: in vivo, Ipomoea spp.; conditions: Ipomoea, post-emergence, 336 h, read-out: percent postemergent control
# Procedure, shortened: as §1
# pigweed = assay: Postemergent control of plant species; assay type: in vivo, Amaranthus spp.; conditions: Amaranthus retroflexus, post-emergence, 336 h, read-out: percent postemergent control
# Procedure, shortened: as §1
# velvetleaf [6] = assay: Postemergent control of plant species; assay type: in vivo, Abutilon theophrasti; conditions: Abutilon theophrasti, post-emergence, 336 h, read-out: percent postemergent control
# Procedure, shortened: as §1
# corn [7] = assay: Postemergent control of plant species; assay type: in vivo, Zea mays; conditions: Zea mays, post-emergence, 336 h, read-out: percent postemergent control
# Procedure, shortened: as §1
# rice [8] = assay: Postemergent control of plant species; assay type: in vivo, Oryza sativa; conditions: Oryza sativa, post-emergence, 336 h, read-out: percent postemergent control
# Procedure, shortened: as §1
# sorghum [9] = assay: Postemergent control of plant species; assay type: in vivo, Sorghum vulgare; conditions: Sorghum, post-emergence, 336 h, read-out: percent postemergent control
# Procedure, shortened: as §1
# wheat [10] = assay: Postemergent control of plant species; assay type: in vivo, Triticum aestivum; conditions: Triticum aestivum, post-emergence, 336 h, read-out: percent postemergent control
# Procedure, shortened: as §1
# barnyardgrass [11] = assay: Postemergent control of plant species; assay type: in vivo, Echinochloa crusgalli; conditions: Echinochloa crus-galli, post-emergence, 336 h, read-out: percent postemergent control
# Procedure, shortened: as §1
# crabgrass = assay: Postemergent control of plant species; assay type: in vivo, Digitaria spp.; conditions: Digitaria sanguinalis, post-emergence, 336 h, read-out: percent postemergent control
# Procedure, shortened: as §1
# yellow foxtail [12] = assay: Postemergent control of plant species; assay type: in vivo, Setaria lutescens; conditions: Setaria, post-emergence, 336 h, read-out: percent postemergent control
# Procedure, shortened: as §1
# johnson grass [13] = assay: Postemergent control of plant species; assay type: in vivo, Sorghum halepense; conditions: Sorghum halepense, post-emergence, 336 h, read-out: percent postemergent control
# Procedure, shortened: as §1
# wild oats [14] = assay: Postemergent control of plant species; assay type: in vivo, Avena fatua; conditions: Avena fatua, post-emergence, 336 h, read-out: percent postemergent control
# Procedure, shortened: as §1
# yellow nutsedge [15] = assay: Postemergent control of plant species; assay type: in vivo, Cyperus esculentus; conditions: Cyperus, post-emergence, 336 h, read-out: percent postemergent control
# Procedure, shortened: as §1
# [16] = tested on: nitrification of ammonium nitrogen; assay: Suppression of nitrification of ammonium nitrogen in soil; conditions: 27° C.
# Procedure, shortened: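 Soil (20 g) moistened to its 1/3 bar tension value, mixed with test chemical and incubated sealed for two weeks at 27° C. Nitrate extracted with ammonium sulfate solution and measured by nitrate-specific ion electrode; value given as % NH4-N remaining.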
# [17] = tested on: annual sugar beet variety (SLC03); assay: Plant growth regulator activity, postemergence; assay type: in vivo; conditions: for minimal effective concentration: Beta vulgaris, post-emergence, 672 h, 4 weeks after spraying, read-out: Bolting Inhibition (postemergence), concentration with observed effect
# From the text: Using a regular biennial variety, even a bolting-susceptible variety would require a cold treatment of around 10-16 weeks plus a hormone treatement in conjunction with specific light intensities. Thus, for a screening organism, we selected one which would consistently produce bolting on a regular schedule. The screen is run with an annual sugar beet variety (SLC03) provided by Dr. Richard J. Hecker, Fort Collins, Colo. This variety is an inbred which bolts in the 6- to 8-leaf stage without any need for vernalization. This allows the screen to be run entirely in the greenhouse with all 110 chemical compounds tested on one tray. The sugarbeets are grown in 3×3 inch square pots in a greenhouse sandy loam potting mix. The sugarbeets are sprayed with test compounds when they are 2 to 3 weeks old (2 true leaves). The compounds are dissolved in acetone and diluted with water containing Tween 20 as a wetting agent. The concentration of acetone in the final spray is 20% and the concentration of Tween 20 is 0.05 percent. The plants are examined for the appearance of a bolt 4 weeks after spraying.
# cotton [18] = assay: Preemergent control of plant species; assay type: in vivo, Gossypium spp.; conditions: Gossypium hirsutum, pre-emergence, 336 h; 0.25 lb/acre; read-out: percent preemergent control
# Procedure, shortened: (§2)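 Seeds sown in agricultural soil in greenhouse beds, then aqueous-emulsion compositions applied uniformly to the bed surface at listed rates. Beds kept two weeks under greenhouse growth conditions with watering. Control expressed as growth reduction versus water-treated beds of the same species.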
# rape [19] = assay: Preemergent control of plant species; assay type: in vivo, Brassica napus; conditions: Brassica napus, pre-emergence, 336 h; 0.25 lb/acre; read-out: percent preemergent control
# Procedure, shortened: as §2
# soybean [20] = assay: Preemergent control of plant species; assay type: in vivo, Glycine max.; conditions: Glycine max, pre-emergence, 336 h; 0.25 lb/acre; read-out: percent preemergent control
# Procedure, shortened: as §2
# sugar beet [21] = assay: Preemergent control of plant species; assay type: in vivo, Beta saccharifera; conditions: Beta vulgaris, pre-emergence, 336 h; 0.25 lb/acre; read-out: percent preemergent control
# Procedure, shortened: as §2
# annual morning glory [22] = assay: Preemergent control of plant species; assay type: in vivo, Ipomoea spp.; conditions: Ipomoea, pre-emergence, 336 h; 0.25 lb/acre; read-out: percent preemergent control
# Procedure, shortened: as §2
# velvetleaf [23] = assay: Preemergent control of plant species; assay type: in vivo, Abutilon theophrasti; conditions: Abutilon theophrasti, pre-emergence, 336 h; 0.25 lb/acre; read-out: percent preemergent control
# Procedure, shortened: as §2
# corn [24] = assay: Preemergent control of plant species; assay type: in vivo, Zea mays; conditions: Zea mays, pre-emergence, 336 h; 0.25 lb/acre; read-out: percent preemergent control
# Procedure, shortened: as §2
# rice [25] = assay: Preemergent control of plant species; assay type: in vivo, Oryza sativa; conditions: Oryza sativa, pre-emergence, 336 h; 0.25 lb/acre; read-out: percent preemergent control
# Procedure, shortened: as §2
# sorghum [26] = assay: Preemergent control of plant species; assay type: in vivo, Sorghum vulgare; conditions: Sorghum, pre-emergence, 336 h; 0.25 lb/acre; read-out: percent preemergent control
# Procedure, shortened: as §2
# wheat [27] = assay: Preemergent control of plant species; assay type: in vivo, Triticum aestivum; conditions: Triticum aestivum, pre-emergence, 336 h; 0.25 lb/acre; read-out: percent preemergent control
# Procedure, shortened: as §2
# barnyardgrass [28] = assay: Preemergent control of plant species; assay type: in vivo, Echinochloa crusgalli; conditions: Echinochloa crus-galli, pre-emergence, 336 h; 0.25 lb/acre; read-out: percent preemergent control
# Procedure, shortened: as §2
# johnson grass [29] = assay: Preemergent control of plant species; assay type: in vivo, Sorghum halepense; conditions: Sorghum halepense, pre-emergence, 336 h; 0.25 lb/acre; read-out: percent preemergent control
# Procedure, shortened: as §2
# wild oats [30] = assay: Preemergent control of plant species; assay type: in vivo; conditions: Avena fatua, pre-emergence, 336 h; 0.25 lb/acre; read-out: percent preemergent control
# Procedure, shortened: as §2
# yellow foxtail [31] = assay: Preemergent control of plant species; assay type: in vivo, Setaria lutescens; conditions: Setaria, pre-emergence, 336 h; 0.25 lb/acre; read-out: percent preemergent control
# Procedure, shortened: as §2
# yellow nutsedge [32] = assay: Preemergent control of plant species; assay type: in vivo, Cyperus esculentus; conditions: Cyperus, pre-emergence, 336 h; 0.25 lb/acre; read-out: percent preemergent control
# Procedure, shortened: as §2
structure (smiles),measurement,setting,value
COC(=O)c1cccc(C)c1N(Cc1ccccc1)S(=O)(=O)c1nc2nc(C)cc(C)n2n1 [Compound 267],plant injury at 500 ppm,cotton [1],0%
same,plant injury at 500 ppm,rape [2],80%
same,plant injury at 500 ppm,soybean [3],45%
same,plant injury at 500 ppm,sugar beet [4],80%
same,pest or weed control at 500 ppm,jimsonweed,80%
same,pest or weed control at 500 ppm,annual morning glory [5],90%
same,pest or weed control at 500 ppm,pigweed,60%
same,pest or weed control at 500 ppm,velvetleaf [6],95%
same,plant injury at 500 ppm,corn [7],0%
same,plant injury at 500 ppm,rice [8],40%
same,plant injury at 500 ppm,sorghum [9],65%
same,plant injury at 500 ppm,wheat [10],0%
same,pest or weed control at 500 ppm,barnyardgrass [11],35%
same,pest or weed control at 500 ppm,crabgrass,90%
same,pest or weed control at 500 ppm,yellow foxtail [12],70%
same,pest or weed control at 500 ppm,johnson grass [13],75%
same,pest or weed control at 500 ppm,wild oats [14],0%
same,pest or weed control at 500 ppm,yellow nutsedge [15],40%
same,% NH4-N Remaining After 2 Weeks Incubation,[16]; 0.06 ppm,0%
same,% NH4-N Remaining After 2 Weeks Incubation,[16]; 0.25 ppm,0%
same,% NH4-N Remaining After 2 Weeks Incubation,[16]; 1 ppm,0%
same,% NH4-N Remaining After 2 Weeks Incubation,[16]; 4 ppm,11%
same,observed effect (postemergence),[17]; 400 ppm,stunting
same,minimal effective concentration,[17],400 µg/mL
Cc1cc(C)n2nc(S(=O)(=O)Nc3c(Cl)cccc3-c3ccccc3)nc2n1 [Compound 63],% NH4-N Remaining After 2 Weeks Incubation,[16]; 0.06 ppm,6%
same,% NH4-N Remaining After 2 Weeks Incubation,[16]; 0.25 ppm,6%
same,% NH4-N Remaining After 2 Weeks Incubation,[16]; 1 ppm,36%
same,% NH4-N Remaining After 2 Weeks Incubation,[16]; 4 ppm,61%
same,minimal effective concentration,[17],5 µg/mL
CC(C)c1ccn2nc(S(=O)(=O)Nc3c(Cl)cccc3Cl)nc2n1 [Compound 204],plant injury at 280.212 g/ha,cotton [18],80%
same,plant injury at 280.212 g/ha,rape [19],40%
same,plant injury at 280.212 g/ha,soybean [20],0%
same,plant injury at 280.212 g/ha,sugar beet [21],90%
same,pest or weed control at 280.212 g/ha,annual morning glory [22],0%
same,pest or weed control at 280.212 g/ha,velvetleaf [23],0%
same,plant injury at 280.212 g/ha,corn [24],40%
same,plant injury at 280.212 g/ha,rice [25],0%
same,plant injury at 280.212 g/ha,sorghum [26],60%
same,plant injury at 280.212 g/ha,wheat [27],0%
same,pest or weed control at 280.212 g/ha,barnyardgrass [28],0%
same,pest or weed control at 280.212 g/ha,johnson grass [29],0%
same,pest or weed control at 280.212 g/ha,wild oats [30],0%
same,pest or weed control at 280.212 g/ha,yellow foxtail [31],0%
same,pest or weed control at 280.212 g/ha,yellow nutsedge [32],0%
same,% NH4-N Remaining After 2 Weeks Incubation,[16]; 0.6 ppm,0%
same,% NH4-N Remaining After 2 Weeks Incubation,[16]; 1.25 ppm,0%
same,% NH4-N Remaining After 2 Weeks Incubation,[16]; 2.5 ppm,34%
same,% NH4-N Remaining After 2 Weeks Incubation,[16]; 5 ppm,56%
same,% NH4-N Remaining After 2 Weeks Incubation,[16]; 10 ppm,66%
same,minimal effective concentration,[17],400 µg/mL
